# In ChEMBL document CHEMBL5532636 (Eur J Med Chem, 2023):
# Key:
# SARS-CoV-2 [1] = assay: (§1) Antiviral activity against SARS-CoV-2 infected in human Calu-3 cells assessed as reduction in progeny virus yeild preincubated with cell culture for 1 hr and further infected with virus for 1 hr followed by replacement of medium containing compound measured after 2 days by qRT-PCR analysis; assay type: functional, organism-based; settings: Severe acute respiratory syndrome coronavirus 2, Calu-3
# SARS-CoV-2 [2] = assay: as §1, with “African green monkey Vero” for “human Calu-3”; assay type: functional, organism-based; settings: Severe acute respiratory syndrome coronavirus 2, Vero
Compound,EC50 (SARS-CoV-2 [1]) [µM],EC50 (SARS-CoV-2 [2]) [µM]
O=c1cc(-c2ccccc2)oc2cc(O)c(O)c(O)c12 [BAICALEIN],1.2,
O=C(O)[C@H]1O[C@@H](Oc2cc3oc(-c4ccccc4)cc(=O)c3c(O)c2O)[C@H](O)[C@@H](O)[C@@H]1O [BAICALIN],,9
